From paper PMC4841536, “Characterization of the Anti-HCV Activities of the New Cyclophilin Inhibitor STG-175” (PLoS ONE, 2016)
“And” between values parts separate entries of the source, which are not always exact repeats. Equal entries are not always repeated. Where two headings read alike, the source gives them in different places.

Tests used:
[1] = tested on: IL-2 promoter activation in Jurkat T-cell line; experiment: In vitro assay for immunosuppression: IL-2 promoter activation in engineered Jurkat T-cell line (betagalactosidase); type: cell-based; details: Homo sapiens; Jurkat cells activated with PMA 10 ng/mL, 24 h; read-out: IC50, inhibition of IL-2 production (immunosuppressive activity)
Procedure: IL-2 promoter activation upon T-cell stimulation was determined using an engineered Jurkat T-cell line, which expresses betagalactosidase when exposed to chemical non-specific factors like […] (PMA) and phytohematogglutinin (PHA) as described previously. DMSO or STG-175 were added together with PMA (10 ng/mL) to 1 million of Jurkat cells (triplicates). Betagalactosidase activity in cell lysates was quantified by fluorescence (460 nm) after 24 h.
(§1) Fig 1 Anti-PPIase and immunosuppressive activities of STG-175. A. Structures of cyclophilin inhibitors. Inhibition of CypA (B) and CypD (C) isomerase activities were assessed using the α-chymotrypsin-coupled assay. Each test compound was prepared at 10 concentrations (0.05–1000 nM). All solutions were equilibrated, and reactions conducted at 5°C. Reactions were initiated by mixing 95 μL reaction mix with 5 μL of the peptide to be cleaved and measuring OD405 nm at 6-sec intervals for 6 min. Data were fitted with Graphpad Prism 6.0 to obtain first-order rate constants. Enzyme catalyzed rate constants were calculated by subtracting the rate constant from uncatalyzed reactions (no CypA/D), and catalytic rate constants plotted as a function of inhibitor concentration to obtain IC50s. […] D. IL-2 promoter activation upon T-cell stimulation was determined using an engineered Jurkat T-cell line, which expresses betagalactosidase. Jurkat cells (1 million) were activated with PMA (10 ng/mL). […] The Y-axis values are expressed as percentage of activity. Data expressed as EC50s are representative of two independent experiments.
The formation of this trimolecular complex inhibits T cell proliferation by blocking the signaling pathway leading to IL-2 production upon T-cell stimulation. The immunosuppressive activity of STG-175 was evaluated by inhibition of the IL-2 production in Jurkat cells.

Human recombinant CypD = molecular target: T1, Human recombinant CypD (Homo sapiens, UniProt P30405); experiment: α-chymotrypsin-coupled PPIase assay, CypD isomerase activity; type: biochemical; details: 5°C, 10 concentrations 0.05–1000 nM
T1 construct: purchased Atgen
T1 sequence (P30405 30-207): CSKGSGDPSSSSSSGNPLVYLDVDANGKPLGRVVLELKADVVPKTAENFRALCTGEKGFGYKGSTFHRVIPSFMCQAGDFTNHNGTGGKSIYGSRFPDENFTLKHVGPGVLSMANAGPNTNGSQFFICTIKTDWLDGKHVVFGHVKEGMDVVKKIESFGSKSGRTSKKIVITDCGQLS
Procedure: (§2) Inhibition of CypA and CypD isomerase activities were quantified using a α-chymotrypsin-coupled assay adapted to a 96-well plate format. Human recombinant CypA or CypD (Atgen) was dissolved to 10 nM in PPIases buffer (50 mM Hepes, 100 mM NaCl, 1 mg/ml bovine serum albumin, 1 mg/ml α-chymotrypsin; pH 8). Succinyl-AAPF-pNA peptide substrate (Sigma) was dissolved to 3.2 mM in LiCl/trifluoroethanol. Each CypI was prepared at 10 concentrations in DMSO, then diluted into CypA/D PPIase buffer to 0.05–1000 nM. Incubations were performed at 5°C. Ninety five μL of reaction mix was added to 5 μL peptide in 96-wells and OD405 nm measured at 6-sec intervals for 6 min using a Biotek Synergy H4 plate reader. Data were fitted with Graphpad Prism 6.0 to acquire first-order rate constants, which were calculated by subtracting the rate constant from uncatalyzed reactions (no CypA/D). The catalytic rate constants were plotted as a function of inhibitor concentration to obtain IC50s.
(§3) The inhibition of the isomerase activities of CypA and CypD were measured with 10 increasing concentrations of STG-175 to quantify IC50 values.
as §1, with “Data were fitted with Graphpad Prism 6.0 to obtain first-order rate constants.” left out, “betagalactosidase.” for “betagalactosidase. Jurkat cells (1 million) were activated with PMA (10 ng/mL).”

[2] = tested on: wild-type Con1 GT1b replicon; experiment: Electroporated Con1 RNA replication in Huh7.5.1 cells (RT-qPCR), wild-type; type: cell-based; details: Hepatitis C virus
From the text: (§4) The GT1b subgenomic firefly luciferase reporter replicon pFK-I389/NS3–3 was provided by R. Bartenschlager. The GT1B subgenomic NS3, NS5A and NS5B mutants were created via homologous recombination using the In-Fusion HD Cloning kit (Clontech) as we described previously. […] The in vitro transcription of wild-type and mutant Con1 RNA was accomplished using the T7 MEGAscript kit (Ambion) by following the manufacturer’s instructions. In vitro-transcribed RNAs were introduced into Huh7.5.1 cells by electroporation. Trypsinized cells were washed twice and resuspended in phosphate-buffered saline (PBS) (calcium-free and magnesium-free) at 1x 10^7 cells per ml. Ten micrograms of RNA for each mutant was mixed with 0.4 mL of cells in a 4-mm cuvette, and a Bio-Rad Gene Pulser system was used to deliver a single pulse at 0.27 kV, 100 ohms, and 960 μF. Cells were then plated in 12-well dishes. RNA transfection efficiency and HCV subgenomic replication were assessed by reverse transcription-quantitative PCR (RT-qPCR) and presented as genome equivalents (GE) per microgram of total RNA as described previously. We measured by RT-qPCR the replication of wild-type, STG-175-, NS5Ai-, NS3i- and NS5Bi-resistant mutants in the presence of increasing concentrations of SGT-175, daclatasvir, telaprevir, boceprevir and sofosbuvir over a period of 8 days.
(§5) Fig 3 Replicon clearance, replication rebound and resistance analyses. […] Then drugs were removed to allow viral replication rebound to occur. At each passage, samples of cells were collected, RNA extracted and analyzed by RT-PCR for HCV RNA levels. B. Emergence of resistance: Con1 replicon Huh-7 cells were passaged 22 times in the absence or presence of STG-175 or selected DAAs. At each passage, sample of cells were collected, RNA extracted and analyzed by RT-PCR for HCV RNA levels. C. […] Data are expressed as number of HCV RNA copies per cell. […] Data are expressed as mean of relative light units and calculated EC50s are presented. […] E. Degree of resistance of D320E and Y321N Con1 variants: Left panel. Wild-type (WT), D320E and D320/Y321N NS5A Con1 RNA were electroporated into Huh7.5.1 cells and replication monitored over 8 days by quantifying the levels of intracellular HCV RNA. Right panel. Same as just above except that increasing concentrations of STG-175 were added at the time of the electroporation. […] STG-175 is taken as the substance from the printed x-axis title 'STG-175 in Log nM'.
To determine whether the D320E and Y321N substitutions truly render HCV resistant to STG-175, they were introduced into wild-type Con1 replicon as we described previously. Introduction of the substitutions was verified by sequencing. In vitro-transcribed wild-type, D320E and D320E/Y321N HCV RNAs were then electroporated into Huh7.5.1 cells and viral replication assessed by RT-qPCR and presented as GE per microgram of total RNA as we described previously. […] We then analyzed the replication of wild-type, D320E and D320E/Y321N in the presence of increasing concentrations of SGT-175 over a period of 8 days.
Fig 5 Cross-resistance analyses.

[3] = tested on: D320E/Y321N NS5A Con1 GT1b replicon; experiment: microbe, parasite or virus in culture; type: cell-based, hepatitis C virus; details: Hepatitis C virus, GT1B
From the text: as §4
(§6) D320E and D320E/Y321N NS5A substitutions were introduced into wild-type Con1 GT1 replicon as we described previously. Con1-NS5A-D320E, and Con1-NS5A-D320E/Y321N were generated using the following forward and reverse phosphorylated (p) primer sets, respectively: (p)[…] and (p)[…], and (p)[…] and (p)[…]. PCR products were circularized with Quick T4 DNA ligase (NEB) for 5 min and transformed into NEB 10-beta competent cells. The NS5A gene was sequenced to confirm the introduced substitutions.
as §5
(§7) To determine whether the D320E and Y321N substitutions truly render HCV resistant to STG-175, they were introduced into wild-type Con1 replicon as we described previously. Introduction of the substitutions was verified by sequencing.

[4] = tested on: D320E NS5A Con1 GT1b replicon; experiment: microbe, parasite or virus in culture; type: cell-based, hepatitis C virus; details: Hepatitis C virus, GT1B
From the text: as §4, §6, §5, §7

[5] = tested on: subgenomic Con1 (GT1b) replicon in Huh-7 cells; type: cell-based, hepatitis C virus; details: for passages until development of HCV resistance, DAA alone ("instead of" comparison): compared with combination; for passage at which resistant variants emerged (CypI comparison): Fig 3C
Procedure: Huh-7 cell expressing subgenomic Con1 (GT1b) replicon were seeded in a 10 cm dish at a density of 3 × 10^5 cells per culture flask in complete DMEM (with G418) with STG-175 or selected drugs. Cells were grown until they reached 90% confluence, trypsinized and re-seeded at the same cell concentration in a new 10-cm dish with the same drug concentration. Cells were passaged 22 times in the presence of drugs. At each passage, sample of cells were collected, RNA extracted according to the manufacturer's instructions and analyzed by RT-PCR for HCV RNA levels.
as §5
We then examined the development of resistance to STG-175. GT1b Con1 sub-genomic replicon cells were grown in the presence of STG-175 (0.25 and 1 μM), telaprevir (2.5 and 10 μM), boceprevir (2.5 and 10 μM), daclatasvir 100 pM and 1 nM) or a combination of STG-175 (0.25 μM) with either telaprevir (2.5 μM), boceprevir (2.5 μM) or daclatasvir (100 pM) for 22 successive passages. At each passage, fresh drug was added and a sample of cells was taken to quantify HCV RNA levels by RT-qPCR.

[6] = tested on: HCV GT4a subgenomic replicon ED43/SG-Feo; set-up: method as in PMID 24687498; details: cited from earlier work
Human recombinant CypA = molecular target: T2, Human recombinant CypA (Homo sapiens, UniProt P62937); experiment: α-chymotrypsin-coupled PPIase assay, CypA isomerase activity; type: biochemical; details: 5°C, 10 concentrations 0.05–1000 nM; read-out: IC50, neutralization of the isomerase activity of CypA
T2 construct: purchased Atgen
T2 sequence (P62937 whole entry): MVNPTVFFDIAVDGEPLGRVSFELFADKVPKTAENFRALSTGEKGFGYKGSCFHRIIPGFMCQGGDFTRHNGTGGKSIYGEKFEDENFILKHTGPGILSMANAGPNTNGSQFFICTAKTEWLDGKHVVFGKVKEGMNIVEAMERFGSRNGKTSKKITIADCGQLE
Procedure: as §2, with “The catalytic rate constants were plotted as a function of inhibitor concentration to obtain IC50s.” left out
as §3
Fig 1 Anti-PPIase and immunosuppressive activities of STG-175. […] Inhibition of CypA (B) and CypD (C) isomerase activities were assessed using the α-chymotrypsin-coupled assay. […] D. IL-2 promoter activation upon T-cell stimulation was determined using an engineered Jurkat T-cell line, which expresses betagalactosidase. […] The Y-axis values are expressed as percentage of activity. […]

[7] = Huh-7.5.1, 192 h, read-out: EC50 GT1b WT
[8] = Huh-7.5.1, 192 h, read-out: EC50 D320E/Y321N NS5A
[9] = Huh-7.5.1, 192 h, read-out: EC50 D320E NS5A

SMILES	IC50 [1] [nM]	EC50 [2, 7] [nM]	EC50 [3, 8] [nM]	EC50 [4, 9] [nM]	passages until development of HCV resistance, DAA alone ("instead of" comparison) [5] [passages]	passage at which resistance began ([5]; 2.5 μM) [passage]	passage at which resistance began ([5]; 10 μM) [passage]	also measured
C/C=C/C[C@@H](C)[C@@H](O)[C@H]1C(=O)N[C@@H](CC)C(=O)N(C)[C@H](SCCN(C)C)C(=O)N(C)[C@@H](CC(C)(C)O)C(=O)N[C@@H](C(C)C)C(=O)N(C)[C@@H](CC(C)C)C(=O)N[C@@H](C)C(=O)N[C@H](C)C(=O)N(C)[C@@H](CC(C)C)C(=O)N(C)[C@@H](CC(C)C)C(=O)N(C)[C@@H](C(C)C)C(=O)N1C [SCY-635]	38.6							IC50 (Human recombinant CypD; IC50, neutralization of the isomerase activity of CypD): 7.1 nM and 7.2 nM
CC(C)OC(=O)[C@H](C)N[P@](=O)(OC[C@H]1O[C@@H](n2ccc(=O)[nH]c2=O)[C@](C)(F)[C@@H]1O)Oc1ccccc1 [sofosbuvir, reference compound]		177	111	120				
COC(=O)N[C@H](C(=O)N1CCC[C@H]1c1nc(-c2ccc(-c3ccc(-c4c[nH]c([C@@H]5CCCN5C(=O)[C@@H](NC(=O)OC)C(C)C)n4)cc3)cc2)c[nH]1)C(C)C [daclatasvir]					4			EC50 ([2]; Huh-7.5.1, read-out: EC50 wild-type replicon): 0.043 nM; passage at which resistance began ([5]; 100 pM): 4 passage; passage at which resistance began ([5]; 1 nM): 5 passage; EC50 ([3]; Huh-7.5.1, read-out: EC50 D320E/Y321N replicon): 0.039 nM; EC50 ([4]; Huh-7.5.1, read-out: EC50 D320E replicon): 0.032 nM
CC(C)(C)NC(=O)N[C@H](C(=O)N1C[C@H]2[C@@H]([C@H]1C(=O)NC(CC1CCC1)C(=O)C(N)=O)C2(C)C)C(C)(C)C (stereo partly drawn) [boceprevir]		138	129	92.7	7	7	10	activity against GT4a [6]: inactive
CCC[C@H](NC(=O)[C@@H]1[C@H]2CCC[C@H]2CN1C(=O)[C@@H](NC(=O)[C@@H](NC(=O)c1cnccn1)C1CCCCC1)C(C)(C)C)C(=O)C(=O)NC1CC1 [telaprevir]		290	314	230	6	7	10	
C/C=C/C[C@@H](C)[C@@H](O)[C@H]1C(=O)N[C@@H](CC)C(=O)N(C)[C@H](C)C(=O)N(CC)[C@@H](C(C)C)C(=O)N[C@@H](C(C)C)C(=O)N(C)[C@@H](CC(C)C)C(=O)N[C@@H](C)C(=O)N[C@H](C)C(=O)N(C)[C@@H](CC(C)C)C(=O)N(C)[C@@H](CC(C)C)C(=O)N(C)[C@@H](C(C)C)C(=O)N1C [ALV, alisporivir]	85.7							IC50 (Human recombinant CypA): 1.7 nM; passage at which resistant variants emerged (CypI comparison) ([5]; 0.25 μM of drug selection): 15 passage; passage at which resistance began ([5]; 1 μM drug pressure, first account (Fig 3B)): 16 passage; passage at which resistant variants emerged (CypI comparison) ([5]; 1 μM of drug selection): 17 passage; IC50 (Human recombinant CypD; read-out: IC50, neutralization of the isomerase activity of CypD): 3.4 nM
